The term EC50 denotes the concentration at which the effect is half-maximal.

The target in one data set is GLP-1R (Homo sapiens (Human), UniProt P43220). Put plainly: GLP-1R activation: cAMP increase in CHO cells stably expressing GLP-1R. The data set is classed as cell-based. The conditions noted are these: cAMP increase, 10 point dose response, 30 minutes incubation at 37° C., read-out: EC50. The method in brief:
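CHO cells stably expressing GLP-1R were incubated 1 h at 37 °C in medium with 1% BSA, then exposed to compound in a 10-point dose response for 30 min at 37 °C. cAMP rise was detected by HTRF (Gs Dynamic kit). EC50 came from a sigmoidal fit of response against log agonist concentration.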

Data set [1] can be described thus: Microsomal stability (liver microsomal assay, mixed cofactors); predicted hepatic clearance. The data set is classed as in vitro ADME. The note with it: liver microsomes 1.0 mg protein/mL (+UDPGA +NADPH), 1 μM analyte, 37° C.; scaled with human liver weight and hepatic blood flow 1.3 L/hr/kg. In outline: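 Compound at 1 μM with human or rat pooled liver microsomes, alamethicin-treated, pH 7.4 phosphate, NADPH-regenerating plus UDPGA cofactors, 37° C, sampled 0–70 min. Parent/internal standard ratio by RapidFire QToF MS; half-life from initial log-linear decay, scaled to intrinsic and predicted hepatic clearance and hepatic extraction.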

GLP-1R, sequence (P43220 24-463): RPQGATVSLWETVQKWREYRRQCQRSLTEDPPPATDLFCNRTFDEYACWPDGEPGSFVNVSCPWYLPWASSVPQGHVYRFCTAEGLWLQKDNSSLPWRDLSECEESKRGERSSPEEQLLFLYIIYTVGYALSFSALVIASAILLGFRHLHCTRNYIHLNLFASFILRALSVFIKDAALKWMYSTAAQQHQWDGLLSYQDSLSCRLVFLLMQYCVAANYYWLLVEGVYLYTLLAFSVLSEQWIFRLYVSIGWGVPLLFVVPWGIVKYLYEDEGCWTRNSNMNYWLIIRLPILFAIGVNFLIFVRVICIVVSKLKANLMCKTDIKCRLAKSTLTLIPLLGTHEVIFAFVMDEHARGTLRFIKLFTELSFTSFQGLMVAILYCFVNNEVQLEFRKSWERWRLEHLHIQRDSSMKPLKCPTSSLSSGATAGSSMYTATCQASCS

Take `COCCn1c(Cc2ccc(-c3cccc4c3OC(c3ccc(Cl)cc3F)C4)cc2F)nc2ccc(C(=O)O)cc21` (centres unmarked) [Example 79, 2-(4-(2-(4-chloro-2-fluorophenyl)-2,3-dihydrobenzofuran-7-yl)-2-fluorobenzyl)-1-(2-methoxyethyl)-1H-benzo[d]imidazole-6-carboxylic acid]: the EC50 at GLP-1R was determined as 738 nM. Further, the “Predicted Hepatic Clearance (Pred. Cl.)” value in data set [1] was 2.33 mL/min/kg.

`COCCn1c(Cc2ccc(-c3cccc4c3OC(C)(c3ccc(Cl)cc3F)O4)cc2F)nc2ccc(C(=O)O)cc21` (centres unmarked) [Example 80, 2-(4-(2-(4-chloro-2-fluorophenyl)-2-methylbenzo[d][1, 3]dioxol-4-yl)-2-fluorobenzyl)-1-(2-methoxyethyl)-1H-benzo[d]imidazole-6-carboxylic acid]: the EC50 on GLP-1R is 11 nM. Also, in data set [1], the “Predicted Hepatic Clearance (Pred. Cl.)” value was 4 mL/min/kg.

With `COCCn1c(Cc2cc(F)c(-c3cccc4c3OC(C)(c3ccc(C#N)cc3F)O4)cc2F)nc2ccc(C(=O)O)cc21` (centres unmarked) [Example 81, 2-(4-(2-(4-cyano-2-fluorophenyl)-2-methylbenzo[d][1, 3]dioxol-4-yl)-2,5-difluorobenzyl)-1-(2-methoxyethyl)-1H-benzo[d]imidazole-6-carboxylic acid], on GLP-1R, the EC50 stood at 26 nM. Further, in data set [1], the “Predicted Hepatic Clearance (Pred. Cl.)” value was 8.67 mL/min/kg.

On to `CC1(c2ccc(Cl)cc2F)Oc2cccc(-c3cc(F)c(Cc4nc5ccc(C(=O)O)cc5n4CCOC(F)F)c(F)c3)c2O1` (centres unmarked) [Example 83, 2-(4-(2-(4-chloro-2-fluorophenyl)-2-methylbenzo[d][1, 3]dioxol-4-yl)-2,6-difluorobenzyl)-1-(2-(difluoromethoxy)ethyl)-1H-benzo[d]imidazole-6-carboxylic acid], for which the EC50 on GLP-1R was determined as 13 nM. Further, the “Predicted Hepatic Clearance (Pred. Cl.)” value in data set [1] is 3.3 mL/min/kg.

Turning to `COCCn1c(Cc2cc(F)c(-c3cccc4c3OC(C)(c3ccc(Cl)cc3F)O4)cc2F)nc2ccc(-c3nn[nH]n3)cc21` (centres unmarked) [Example 84, 2-(4-(2-(4-chloro-2-fluorophenyl)-2-methylbenzo[d][1, 3]dioxol-4-yl)-2,5-difluorobenzyl)-1-(2-methoxyethyl)-6-(2H-tetrazol-5-yl)-1H-benzo[d]imidazole], the EC50 on GLP-1R was determined as 49 nM. Moreover, the “Predicted Hepatic Clearance (Pred. Cl.)” value in data set [1] was 2.83 mL/min/kg.

Regarding `COCCn1c(Cc2ccc(-c3cccc4c3OC(C)(c3ccc(Cl)cc3F)O4)nc2OC)nc2ccc(C(=O)O)cc21` (centres unmarked) [Example 85, 2-((6-(2-(4-chloro-2-fluorophenyl)-2-methylbenzo[d][1, 3]dioxol-4-yl)-2-methoxypyridin-3-yl)methyl)-1-(2-methoxyethyl)-1H-benzo[d]imidazole-6-carboxylic acid], on GLP-1R, the EC50 turned out to be 168 nM. In addition, the “Predicted Hepatic Clearance (Pred. Cl.)” value in data set [1] was 3 mL/min/kg.

Take `COCCn1c(Cc2ccc(-c3cccc4c3OC(C)(c3ccc(Cl)cc3F)O4)[nH]c2=O)nc2ccc(C(=O)O)cc21` (centres unmarked) [Example 86, 2-((6-(2-(4-chloro-2-fluorophenyl)-2-methylbenzo[d][1, 3]dioxol-4-yl)-2-oxo-1,2-dihydropyridin-3-yl)methyl)-1-(2-methoxyethyl)-1H-benzo[d]imidazole-6-carboxylic acid]: on GLP-1R, the EC50 came to 13 nM. The “Predicted Hepatic Clearance (Pred. Cl.)” value in data set [1] is 2 mL/min/kg.

Consider `COCCn1c(Cc2ccc(-c3cccc4c3OC(C)(c3ccc(Cl)cc3F)O4)n(C)c2=O)nc2ccc(C(=O)O)cc21` (centres unmarked) [Example 87, 2-((6-(2-(4-chloro-2-fluorophenyl)-2-methylbenzo[d][1, 3]dioxol-4-yl)-1-methyl-2-oxo-1,2-dihydropyridin-3-yl)methyl)-1-(2-methoxyethyl)-1H-benzo[d]imidazole-6-carboxylic acid], for which the EC50 at GLP-1R was determined as 1150 nM. In addition, the “Predicted Hepatic Clearance (Pred. Cl.)” value in data set [1] was 9 mL/min/kg.

`COCCn1c(Cc2c(F)cc(-c3cccc4c3OC(C)(c3ccc(C#N)cc3F)O4)c(F)c2F)nc2ccc(C(=O)O)cc21` (centres unmarked) [Example 88, 2-(4-(2-(4-cyano-2-fluorophenyl)-2-methylbenzo[d][1, 3]dioxol-4-yl)-2,3,6-trifluorobenzyl)-1-(2-methoxyethyl)-1H-benzo[d]imidazole-6-carboxylic acid]: the EC50 on GLP-1R worked out at 12 nM. Further, the “Predicted Hepatic Clearance (Pred. Cl.)” value in data set [1] is 8 mL/min/kg.

Regarding `COCCn1c(Cc2c(F)cc(-c3cccc4c3OC(C)(c3ccc(C#N)cc3F)O4)cc2F)nc2ccc(C(=O)O)cc21` (centres unmarked) [Example 89, 2-(4-(2-(4-cyano-2-fluorophenyl)-2-methylbenzo[d][1, 3]dioxol-4-yl)-2,6-difluorobenzyl)-1-(2-methoxyethyl)-1H-benzo[d]imidazole-6-carboxylic acid], on GLP-1R, the 50% effective concentration (EC50) was 15 nM. In data set [1], the “Predicted Hepatic Clearance (Pred. Cl.)” value is 6.17 mL/min/kg.

For the compound `CC1(c2ccc(C#N)cc2F)Oc2cccc(-c3cc(F)c(Cc4nc5ccc(C(=O)O)cc5n4C[C@@H]4CCO4)c(F)c3F)c2O1` (stereo partly drawn) [Example 90, 2-(4-(2-(4-cyano-2-fluorophenyl)-2-methylbenzo[d][1, 3]dioxol-4-yl)-2,3,6-trifluorobenzyl)-1-(((S)-oxetan-2-yl)methyl)-1H-benzo[d]imidazole-6-carboxylic acid], the EC50 on GLP-1R was found to be 0.23 nM. Also, in data set [1], the “Predicted Hepatic Clearance (Pred. Cl.)” value was 4.67 mL/min/kg.

As for `CC1(c2ccc(C#N)cc2F)Oc2cccc(-c3cc(F)c(Cc4nc5ccc(C(=O)O)cc5n4C[C@@H]4CCO4)c(F)c3)c2O1` (stereo partly drawn) [Example 91, 2-(4-(2-(4-cyano-2-fluorophenyl)-2-methylbenzo[d][1, 3]dioxol-4-yl)-2,6-difluorobenzyl)-1-(((S)-oxetan-2-yl)methyl)-1H-benzo[d]imidazole-6-carboxylic acid], the EC50 at GLP-1R was determined as 0.69 nM. For the same compound, in data set [1], the “Predicted Hepatic Clearance (Pred. Cl.)” value is 3.83 mL/min/kg.

With `COCCn1c(Cc2c(F)cc(-c3c(F)ccc4c3OC(C)(c3ccc(Cl)cn3)O4)cc2F)nc2ccc(C(=O)O)cc21` (centres unmarked) [Example 100, 2-(4-(2-(5-chloropyridin-2-yl)-5-fluoro-2-methylbenzo[d][1, 3]dioxol-4-yl)-2,6-difluorobenzyl)-1-(2-methoxyethyl)-1H-benzo[d]imidazole-6-carboxylic acid], on GLP-1R, the half-maximal effective concentration (EC50) turned out to be 14 nM. In data set [1], the “Predicted Hepatic Clearance (Pred. Cl.)” value was 10.3 mL/min/kg.

Turning to `COCCn1c(Cc2cc(F)c(-c3c(F)ccc4c3OC(C)(c3ccc(Cl)cn3)O4)cc2F)nc2ccc(C(=O)O)cc21` (centres unmarked) [Example 101, 2-(4-(2-(5-chloropyridin-2-yl)-5-fluoro-2-methylbenzo[d][1, 3]dioxol-4-yl)-2,5-difluorobenzyl)-1-(2-methoxyethyl)-1H-benzo[d]imidazole-6-carboxylic acid], the EC50 at GLP-1R is 160 nM. Further, in data set [1], the “Predicted Hepatic Clearance (Pred. Cl.)” value was 11.8 mL/min/kg.

For `COCCn1c(Cc2c(F)cc(-c3cccc4c3O[C@@](C)(c3ccc(Cl)cc3F)O4)cc2F)nc2ccc(C(=O)O)cc21` [Example 102, 2-(4-(2-(4-chloro-2-fluorophenyl)-2-methylbenzo[d][1, 3]dioxol-4-yl)-2,6-difluorobenzyl)-1-(2-methoxyethyl)-1H-benzo[d]imidazole-6-carboxylic acid], the EC50 on GLP-1R was determined as 65 nM. The “Predicted Hepatic Clearance (Pred. Cl.)” value in data set [1] was 3.17 mL/min/kg.

For `COCCn1c(Cc2c(F)cc(-c3cccc4c3O[C@](C)(c3ccc(Cl)cc3F)O4)cc2F)nc2ccc(C(=O)O)cc21` [Example 103, 2-(4-(2-(4-chloro-2-fluorophenyl)-2-methylbenzo[d][1, 3]dioxol-4-yl)-2,6-difluorobenzyl)-1-(2-methoxyethyl)-1H-benzo[d]imidazole-6-carboxylic acid], on GLP-1R, the concentration giving a half-maximal response (EC50) was found to be 8.2 nM. Moreover, in data set [1], the “Predicted Hepatic Clearance (Pred. Cl.)” value was 4.17 mL/min/kg.

As to `CC1(c2ccc(Cl)cc2F)Oc2cccc(-c3ccc(Cc4nc5ccc(C(=O)O)cc5n4Cc4ccon4)c(F)c3)c2O1` (centres unmarked) [Example 107, 2-(4-(2-(4-chloro-2-fluorophenyl)-2-methylbenzo[d][1, 3]dioxol-4-yl)-2-fluorobenzyl)-1-(isoxazol-3-ylmethyl)-3a,7a-dihydro-1H-benzo[d]imidazole-6-carboxylic acid], the EC50 on GLP-1R is 1.9 nM. For the same compound, the “Predicted Hepatic Clearance (Pred. Cl.)” value in data set [1] is 4.33 mL/min/kg.

As for `CC(=O)N1CC[C@@H]1Cn1c(Cc2ccc(-c3cccc4c3OC(C)(c3ccc(Cl)cc3F)O4)cc2F)nc2ccc(C(=O)O)cc21` (stereo partly drawn) [Example 108, 3-[[(2R)-1-acetylazetidin-2-yl]methyl]-2-[[4-[2-(4-chloro-2-fluoro-phenyl)-2-methyl-1,3-benzodioxol-4-yl]-2-fluoro-phenyl]methyl] benzimidazole-5-carboxylic acid], on GLP-1R, the EC50 stood at 4.3 nM. Further, the “Predicted Hepatic Clearance (Pred. Cl.)” value in data set [1] is 2 mL/min/kg.

On to `CC1(c2ccc(Cl)cc2F)Oc2cccc(-c3ccc(Cc4nc5ccc(C(=O)O)cc5n4CC4(n5ccnn5)CC4)c(F)c3)c2O1` (centres unmarked) [Example 109, 1-((1-(1H-1,2,3-triazol-1-yl)cyclopropyl)methyl)-2-(4-(2-(4-chloro-2-fluorophenyl)-2-methylbenzo[d][1, 3]dioxol-4-yl)-2-fluorobenzyl)-1H-benzo[d]imidazole-6-carboxylic acid], for which the EC50 on GLP-1R is 9.1 nM. Besides, in data set [1], the “Predicted Hepatic Clearance (Pred. Cl.)” value was 2.5 mL/min/kg.

Values taken from patent US20250099431A1, “GLP-1R MODULATING COMPOUNDS” (priority 2020, published 2025).
